Data on one compound can be found in US20230158057A1, “COMPOSITIONS AND METHODS FOR THE TREATMENT OF PAIN” (Duke University, priority 2020, published 2023).

SMILES strings stand for the structures.

Experiment [1] has as its system IFN-β. The experiment is described as follows: IFN-β ELISA on DRGs incubated ex vivo or cultured with ADU-S100. The experiment is classed as cell-based, mouse. The note with it: for IFN-β levels in DRG lysate: ex vivo incubation 30 μM, 2 h. The procedure:
(§1) ELISA: Mouse high-sensitivity IFN-α ELISA kit (42115-1) and IFN-β ELISA kit (42410-1) were purchased from PBL Assay Science and performed on serum, DRG lysate, or cell culture medium according to the manufacturer's instructions. Serum was obtained from whole blood through cardiac puncture at the time of euthanasia, followed by incubation for 30 minutes at 35° C. to promote clotting. Subsequently, samples were centrifuged at 4° C. at 2,500 xg for 15 minutes, followed by careful isolation of serum (supernatant). For ELISA on cell culture medium, samples were first concentrated approximately 10-fold using Amicon centrifugal filters (Millipore Sigma, UFC8030). DRGs were lysed by mechanical homogenization in a pH 7.4 CHAPS lysis buffer (FivePhoton Biochemicals, CIB-1-7.4-60) supplemented with a protease inhibitor cocktail (Millipore Sigma, 11697498001) and phosphatase inhibitor cocktail (FivePhoton Biochemicals, PIC1). For DRG lysate, Pierce BCA (ThermoFisher, 23225) assays were performed according to the manufacturer's instructions to quantify protein concentration, and ELISA results are reported normalized to protein concentration (pg/mg DRG tissue). To measure IFN-β levels in cerebrospinal fluid (CSF) isolated by spinal catheter from NHPs, we utilized a cynomolgus IFN-β ELISA kit (PBL Assay Science, 46415-1), which was performed using 50 μl CSF according to the manufacturer's instructions. Standard curves were performed in all experiments and values interpolated using GraphPad Prism version.
(In general: In an ELISA, binding on a coated surface is turned into a signal by an enzyme label.)

For experiment [2], the system named is IFN-β. The experiment is described as follows: YFP (IFN-β) expression in DRG neurons of Ifnb1YFP/YFP reporter mice. Type of experiment: in vivo, mouse. The procedure: Genetic mouse models: All mouse procedures were approved by the Duke University Institutional Animal Care and Use Committee (IACUC) and complied with relevant ethical guidelines. Mice were housed in an animal facility approved by the Association for Assessment and Accreditation of Laboratory Animal Care (AAALAC) under a 12 h light/dark cycle with food and water available ad libitum. All commercially-available genetic mouse models were obtained from Jackson Labs and maintained on a C57BL/6J background, including: Ifnb1YFP reporter mice (strain #010818) 1, STING “goldenticket” knockout mice 2 (STINGgt/gt; strain #017537), STING floxed/conditional knockout mice 3 (STINGfx/fx; strain #031670), Ifnar1 global knockout mice (Ifnar1−/−; strain #028288), Ifnar1 floxed/conditional knockout mice 4 (Ifnar1fx/fx; strain #028256), cGAS knockout mice 5 (cGAS−/−; strain #026554), and RIG-I knockout mice (RIG-I−/−; strain #46070-JAX). Nav1.8-Cre mice 6, also maintained on a C57BL/6J background, were a gift from Rohini Kuner (University of Heidelberg). NOD.CB17-Prkdcscid mice were also obtained from Jackson Labs (strain #001303) and maintained in a NOD/ShiLtSz genetic background. Unless otherwise noted, all experiments were conducted in adult (8-12-week-old) mice. Animals were randomly assigned to each experimental group. Both males and females were included in each group in a sex-matched manner. […]

Another experiment relates to IFN-α. The experiment in a line: IFN-α ELISA on DRGs incubated ex vivo or cultured with ADU-S100. Type of experiment: cell-based, mouse. The method, then: as §1
Setting [3] is: cultured DRGs from STING-WT mice.

With `Nc1ncnc2c1ncn2[C@@H]1O[C@@H]2COP(=O)([S-])O[C@@H]3[C@H](O)[C@@H](COP([O-])(=S)O[C@H]2[C@H]1O)O[C@H]3n1cnc2c(N)ncnc21.[Na+].[Na+]` (stereo partly drawn) [ADU-S100, (2′-5′)-[P(R)]-5′-O-[(R)-hydroxymercaptophosphinyl]-P-thioadenylyl-adenosine cyclic dinucleotide], the “IFN-β in culture medium” value with IFN-β [1] (setting [3]) was “increased IFN-α and IFN-β in the culture medium”. Also, the “increase in IFN-β in STING-KO and STING-cKO DRGs” value in the experiment on IFN-β [1] (ex vivo incubation) is “abolished in STING-KO mice and largely abolished in STING-cKO mice”. The “IFN-β levels in DRG lysate” value in the experiment with IFN-β [1] (STINGfx/fx, Nav1.8-Cre mice) is given as “significant elevation of IFN-β in STINGfx/fx; Nav1.8-Cre DRG lysate, but this increase was significantly lower than that seen in WT mice”; in the experiment on IFN-β [1] (WT mice), “IFN-β levels in DRG lysate were increased”. The “YFP (IFN-β) expression in DRG neurons” value in the experiment with IFN-β [2] is “increased after ADU-S100 treatment”. Also, in the experiment on IFN-α (setting [3]), the “IFN-α in culture medium” value is “increased IFN-α and IFN-β in the culture medium”. Besides, in the experiment on IFN-α (ex vivo incubation), the “increase in IFN-α in STING-KO and STING-cKO DRGs” value is “abolished in STING-KO mice and largely abolished in STING-cKO mice”. In addition, the “IFN-α levels in DRG lysate” value with IFN-α (ex vivo incubation 30 μM, 2 h, WT mice) is given as “IFN-α levels in DRG lysate were increased”.
